Test results reported in publication PMC9229817, “Synthesis of novel isoxazole–carboxamide derivatives as promising agents for melanoma and targeted nano-emulgel conjugate for improved cellular permeability” (BMC Chemistry, 2022).
Where “and” joins values, the source holds several entries; their conditions need not be identical. Identical values can stand only once. Like-named read-outs stand apart in the source and are kept apart here.

Tests used:
[1] = tested on: B16F1, Colo205, HepG2, and HeLa cancer cell lines; experiment: MTS assay, IC50 range over a panel of cancer cell lines; format: cell-based
Description: (§1) Hepatocellular carcinoma (Hep3B and HepG2), cervical adenocarcinoma (HeLa), breast carcinoma (MCF-7), melanoma (B16F1), colorectal adenocarcinoma (Caco-2), and colon adenocarcinoma (Colo205), as well as human hepatic stellate (LX-2) in addition to the normal cell line (Hek293T), were used as cancer and normal cell lines and were cultured in RPMI-1640 media and supplemented with 10.0% fetal bovine serum, 1.0% l-glutamine and 1.0% Penicillin/Streptomycin antibiotics. After that, the cells matured in a moist atmosphere with 5.0% CO2 at 37 °C. In a 96-well plate, the cells were seeded at 2.5 × 10^4 cells/well. After 72 h, the cells were confluent, the media was changed, and then the cells were incubated with various concentrations (300, 100, 50, 10, and 1 µM), as well as lower concentrations (500, 100, and 50 nM) were used, especially for compound 2e against the B16-F1 cancer cell line to calculate accurate IC50 values for the evaluated compounds (2a–2f) for 24 h. The viability of cells was assessed by the Cell Tilter 96® Aqueous One Solution Cell Proliferation (MTS) Assay according to the manufacturer’s procedures (Promega Corporation, Madison, WI). However, at the end of the treatment, about 20 μl/100 μl of MTS solution/media was added to each well and for 2 h, they were incubated at 37 °C. Finally, the absorbance was measured at 490 nm.

Hek293t = experiment: MTS assay, normal cell line Hek293t; format: cell-based; settings: 24 h treatment
Description: as §1

MCF-7 = experiment: MTS assay, MCF-7 breast carcinoma cells; format: cell-based, Human
Description: as §1

Colo205 = experiment: MTS assay, Colo205 colon adenocarcinoma cells; format: cell-based; settings: for IC50: MTS, 24 h treatment; for viability at 50 µM: COLO 205, read-out: Cell viability percentage, Colo205
Description: as §1

HeLa = experiment: MTS assay, HeLa cervical adenocarcinoma cells; format: cell-based, Human; settings: 24 h treatment
Description: as §1

CaCo-2 = experiment: MTS assay, CaCo-2 colorectal adenocarcinoma cells; format: cell-based
Description: as §1

B16F1 [2] = experiment: MTS assay, B16F1 melanoma cells; format: cell-based; settings: for IC50: MTS, 24 h treatment
Description: as §1

Hep3B = experiment: MTS assay, Hep3B hepatocellular carcinoma cells; format: cell-based; settings: 24 h treatment
Description: as §1

HepG2 = experiment: MTS assay, HepG2 hepatocellular carcinoma cells; format: cell-based; settings: for viability at 50 µM: read-out: Cell viability percentage, HepG2; for IC50: MTS, 24 h treatment
Description: as §1

B16F1 [3] = experiment: MTS assay, B16F1 melanoma cells; format: cell-based; settings: compound versus its nano-emulgel at 1, 0.5, 0.1, 0.05, and 0.01 µM
[4] = tested on: human hepatic stellate cell (HSC) line LX-2; experiment: Anti-fibrotic activity, MTS viability of LX-2 cells; format: cell-based; settings: 1 µM
Description: Hepatocellular carcinoma (Hep3B and HepG2), cervical adenocarcinoma (HeLa), breast carcinoma (MCF-7), melanoma (B16F1), colorectal adenocarcinoma (Caco-2), and colon adenocarcinoma (Colo205), as well as human hepatic stellate (LX-2) in addition to the normal cell line (Hek293T), were used as cancer and normal cell lines and were cultured in RPMI-1640 media and supplemented with 10.0% fetal bovine serum, 1.0% l-glutamine and 1.0% Penicillin/Streptomycin antibiotics. After that, the cells matured in a moist atmosphere with 5.0% CO2 at 37 °C. In a 96-well plate, the cells were seeded at 2.5 × 10^4 cells/well. […] The viability of cells was assessed by the Cell Tilter 96® Aqueous One Solution Cell Proliferation (MTS) Assay according to the manufacturer’s procedures (Promega Corporation, Madison, WI). […] Finally, the absorbance was measured at 490 nm.
To explore the anti-fibrotic effects of these compounds on human hepatic stellate cell (HSC) line LX-2, the viability of LX-2 cells following various compounds' treatment was determined by the MTS assay.

[5] = Homo sapiens, MCF7, 24 h treatment
[6] = Homo sapiens, Caco-2, 24 h treatment

SMILES | IC50 (MCF-7; [5]) | IC50 (Colo205; Homo sapiens, COLO 205, 24 h) | IC50 (Colo205) | IC50 (HeLa; Homo sapiens, HeLa) | IC50 (CaCo-2; [6]) | IC50 (B16F1 [2]; Mus musculus, B16-F1) | IC50 (Hep3B; Homo sapiens, Hep3B) | IC50 (HepG2; Homo sapiens, HepG2) | IC50 (MCF-7; 24 h treatment) | IC50 (HeLa) | IC50 (CaCo-2; 24 h treatment) | IC50 (B16F1 [2]) | IC50 (Hep3B) | IC50 (HepG2) | IC50 (Hek293t; Homo sapiens, HEK-293T) | IC50 (Hek293t) | also measured
COc1cc(NC(=O)c2c(-c3ccccc3)noc2C)c(OC)cc1Cl [2a, N-(4–Chloro-2,5-dimethoxyphenyl)-5-methyl-3-phenylisoxazole-4–Carboxamide] | > 200 µM | 9.18 µM | 9.18 ± 0.88 µM | 40.8 ± 1.25 µM | 129 ± 2.47 µM | 29.7 ± 2.12 µM | > 200 µM | 7.55 ± 0.79 µM |  |  |  |  |  |  | 2.54 ± 1.4 µM |  | IC50 ([1]; range over five cancer cell lines, read-out: IC50 range on five cancer cell lines): 7.54 to 129 µM; IC50 ([1]; range over four cancer cell lines, read-out: IC50 range against B16F1, Colo205, HepG2, and HeLa): 7.55 to 40.9 µM; viability at 50 µM (Colo205; Homo sapiens): 39.4%; viability at 50 µM (HepG2; Homo sapiens, HepG2): 29.2%
COc1cccc2c1C(=O)c1c(O)c3c(c(O)c1C2=O)C[C@@](O)(C(=O)CO)C[C@@H]3O[C@H]1C[C@H](N)[C@H](O)[C@H](C)O1 [Dox, Doxorubicin, reference compound] |  |  |  |  |  | 0.056 µM |  |  |  |  |  |  |  |  |  |  | viability at 50 µM (Colo205; Homo sapiens): 9.89%; viability at 50 µM (B16F1 [2]; Mus musculus, B16-F1, 50 µM, read-out: Cell viability percentage, B16F1): 21.8%; viability at 50 µM (HepG2; Homo sapiens, HepG2): 9.46%
Cc1onc(-c2ccccc2)c1C(=O)Nc1ccc(OC(F)(F)F)cc1 [2e, 5-Methyl-3-phenyl-N-(4-(trifluoromethoxy)phenyl) isoxazole-4–Carboxamide] |  |  | > 200 µM |  |  |  |  |  | > 200 µM | > 200 µM | > 200 µM | 0.079 µM | > 200 µM | > 200 µM |  | 190 ± 2.67 µM | IC50 (B16F1 [3]): 0.079 µM; Cell viability percentage, B16F1 (B16F1 [2]; 50 µM): 18.42%
Cc1onc(-c2ccccc2)c1C(=O)Nc1cccc(C(F)(F)F)c1 [2b, 5-Methyl-3-phenyl-N-(3-(trifluoromethyl)phenyl) isoxazole-4–Carboxamide] |  |  | > 200 µM |  |  |  |  |  | > 200 µM | > 200 µM | > 200 µM | 42.9 ± 1.55 µM | > 200 µM | 53.6 ± 2.04 µM |  | 148 ± 2.74 µM | 
O=c1[nH]cc(F)c(=O)[nH]1 [5-FU] |  |  |  |  |  |  |  |  |  |  |  |  |  |  |  |  | Cellular viability of LX-2 [4]: 95% and 94.64%

The next lines start with results.

IC50 (MCF-7; [5]) | IC50 (Colo205; Homo sapiens, COLO 205, 24 h) | IC50 (Colo205) | IC50 (HeLa; Homo sapiens, HeLa) | IC50 (CaCo-2; [6]) | IC50 (B16F1 [2]; Mus musculus, B16-F1) | IC50 (Hep3B; Homo sapiens, Hep3B) | IC50 (HepG2; Homo sapiens, HepG2) | IC50 (MCF-7; 24 h treatment) | IC50 (HeLa) | IC50 (CaCo-2; 24 h treatment) | IC50 (B16F1 [2]) | IC50 (Hep3B) | IC50 (HepG2) | SMILES | IC50 (Hek293t; Homo sapiens, HEK-293T) | IC50 (Hek293t) | also measured
> 200 µM | 216.4 ± 1.58 µM |  | > 200 µM | > 200 µM | 39.8 ± 1.45 µM | > 200 µM | 37.9 ± 2.07 µM |  |  |  |  |  |  | CSc1ccc(NC(=O)c2c(-c3ccccc3)noc2C)cc1 [2d, 5-Methyl-N-(4-(methylthio)phenyl)-3-phenylisoxazole-4–Carboxamide] | > 200 µM |  | melting point: 144 to 146 °C
 |  | 75.4 ± 2.41 µM |  |  |  |  |  | > 200 µM | > 200 µM | > 200 µM | 12.7 ± 1.01 µM | 54.6 ± 2.11 µM | 38.4 ± 1.07 µM | Cc1onc(-c2ccccc2)c1C(=O)Nc1ccc(-c2cccs2)cc1 [2f, 5-Methyl-3-phenyl-N-(4-(thiophen-2-yl)phenyl) isoxazole-4–Carboxamide] |  | 7.91 ± 0.61 µM | Cell viability percentage, B16F1 (B16F1 [2]; 50 µM): 34.03%; Cellular viability of LX-2 [4]: 66.55%
> 200 µM | 183 ± 2.05 µM |  | > 200 µM | > 200 µM | 21.1 ± 0.78 µM | > 200 µM | 120 ± 2.19 µM |  |  |  |  |  |  | COc1ccccc1Oc1ccc(NC(=O)c2c(-c3ccccc3)noc2C)cc1 [2c, N-(4-(2-Methoxyphenoxy)phenyl)-5-methyl-3-phenylisoxazole-4–Carboxamide] | 20.2 ± 1.32 µM |  | melting point: 179 to 180 °C
